Tested on: d-U937 cells
Assay: Cell viability: MTT assay
Type: cell-based, human
Details: 1 μg/mL
Protocol: Differentiated U937 cells were pre-incubated with each test compound (final concentration 1 μg/mL or 10 μg/mL in 200 μL media indicated below) under two protocols: the first for 4 hr in 5% FCS RPMI1640 media and the second in 10% FCS RPMI1640 media for 24 h. The supernatant was replaced with new media (200 μL) and MTT stock solution (10 μL, 5 mg/mL) was added to each well. After incubation for 1 hr the media were removed, DMSO (200 μL) was added to each well and the plates were shaken lightly for 1 hr prior to reading the absorbance at 550 nm. The percentage loss of cell viability was calculated for each well relative to vehicle (0.5% DMSO) treatment. Consequently an apparent increase in cell viability for drug treatment relative to vehicle is tabulated as a negative percentage.

SMILES | MTT Assay Cell viability at time point in d-U937 Cells 4 h | MTT Assay Cell viability at time point in d-U937 Cells 24 h
COc1ccc(Nc2nccc(Oc3ccc(NC(=O)Nc4cc(C(C)(C)C)nn4-c4ccc(C)cc4)c4ccccc34)n2)cc1 [Example 17, 1-(3-(tert-butyl)-1-(p-tolyl)-1H-pyrazol-5-yl)-3-(4-((2-((4-methoxyphenyl)amino)pyrimidin-4-yl)oxy)naphthalen-1-yl)urea] | −ve (−ve and +ve indicate the value is below and above respectively, the no significant effect threshold defined as 30% inhibition at 1 μg/mL at the time point indicated) | −ve (−ve and +ve indicate the value is below and above respectively, the no significant effect threshold defined as 30% inhibition at 1 μg/mL at the time point indicated)
Cc1ccc(-n2nc(C(C)(C)C)cc2NC(=O)Nc2ccc(Oc3ccnc(Nc4ccccc4F)n3)c3ccccc23)cc1 [Example 4, 1-(3-(tert-butyl)-1-(p-tolyl)-1H-pyrazol-5-yl)-3-(4-((2-((2-fluorophenyl)amino)pyrimidin-4-yl)oxy)naphthalen-1-yl)urea] | −ve (−ve and +ve indicate the value is below and above respectively, the no significant effect threshold defined as 30% inhibition at 1 μg/mL at the time point indicated) | −ve (−ve and +ve indicate the value is below and above respectively, the no significant effect threshold defined as 30% inhibition at 1 μg/mL at the time point indicated)
CC(C)(C)c1cc(NC(=O)Nc2ccc(Oc3ccnc(Nc4ccccc4)n3)c3ccccc23)n(-c2ccc(O)cc2)n1 [Example 3, 1-(3-(tert-butyl)-1-(4-hydroxyphenyl)-1H-pyrazol-5-yl)-3-(4-((2-(phenylamino)pyrimidin-4-yl)oxy)naphthalen-1-yl)urea] | −ve (−ve and +ve indicate the value is below and above respectively, the no significant effect threshold defined as 30% inhibition at 1 μg/mL at the time point indicated) | −ve (−ve and +ve indicate the value is below and above respectively, the no significant effect threshold defined as 30% inhibition at 1 μg/mL at the time point indicated)
Cc1ccc(-n2nc(C(C)(C)C)cc2NC(=O)Nc2ccc(Oc3ccnc(Nc4ccc(O)cc4F)n3)c3ccccc23)cc1 [Example 30, 1-(3-(tert-butyl)-1-(p-tolyl)-1H-pyrazol-5-yl)-3-(4-((2-((2-fluoro-4-hydroxyphenyl)amino)pyrimidin-4-yl)oxy)naphthalen-1-yl)urea] | −ve (−ve and +ve indicate the value is below and above respectively, the no significant effect threshold defined as 30% inhibition at 1 μg/mL at the time point indicated) | −ve (−ve and +ve indicate the value is below and above respectively, the no significant effect threshold defined as 30% inhibition at 1 μg/mL at the time point indicated)
Cc1ccc(-n2nc(C(C)(C)C)cc2NC(=O)Nc2ccc(Oc3ccnc(Nc4ccc(O)cc4)n3)c3ccccc23)cc1 [Example 9, 1-(3-(tert-butyl)-1-(p-tolyl)-1H-pyrazol-5-yl)-3-(4-((2-((4-hydroxyphenyl)amino)pyrimidin-4-yl)oxy)naphthalen-1-yl)urea] | −ve (−ve and +ve indicate the value is below and above respectively, the no significant effect threshold defined as 30% inhibition at 1 μg/mL at the time point indicated) | −ve (−ve and +ve indicate the value is below and above respectively, the no significant effect threshold defined as 30% inhibition at 1 μg/mL at the time point indicated)

— US9993478B2, “1-pyrazolyl-3-(4-((2-anilinopyrimidin-4-yl) oxy) napththalen-1-yl) ureas as P38 MAP knase inhibitors” (Respivert Ltd., priority 2011, dated 2018)
